Results on 6 molecules are retold here after article PMC8296573, “Synthesis and Biological Evaluation of Fingolimod Derivatives as Antibacterial Agents” (ACS Omega, 2021).

Data set [1] concerns C. violaceum CV026 (AHL-deficient mutant). Kind of data set: Quorum sensing inhibition assay (violacein) with parallel resazurin viability. It is filed as cell-based, Chromobacterium violaceum. The settings on record: mutant strain. As to the method: (§1) The QS inhibitory activity of the compounds was assessed as described previously.[31],[47] Briefly, two QS reporter strains, C. violaceum ATCC 31532 and the violacein-negative, mini-Tn5 mutant of C. violaceum CV026 (NCTC 13278), were grown on LBA (for CV026, the agar was supplemented with kanamycin at 100 μg mL^–1) overnight at 27 °C. Colonies were suspended in PDYT (0.5% peptone, 0.3% D-glucose, 0.25% yeast extract, 0.05% L-tryptophan, w/v) to reach an OD600 of 0.02. The CV026 culture was supplemented with C6-HSL (N-hexanoyl-L-homoserine lactone) (10007896, Cayman Chemical, MI) at 0.5 μM to induce the QS-moderated synthesis of violacein. For each strain, 200 μL of bacterial culture was added per well in two identical 96-well plates containing the compounds (2 μL per well for a final DMSO concentration of 1%). In each 96-well plate, untreated cells were used as negative controls and quercetin (Q4951, Sigma-Aldrich) and azithromycin (PZ0007, Sigma-Aldrich) were included as positive controls for QS inhibition and cell viability (bactericidal activity), respectively. The plates were incubated at 27 °C under aerobic conditions (200 rpm) for 22 h.
(§2) The synthesized and nonsoluble violacein was collected from the first 96-well plate by centrifugation (4000 rpm, for 15 min, 20 °C), and the supernatants were removed. Violacein was dissolved in 100 μL per well of 96% (v/v) ethanol and was separated from cells by centrifugation as described above. The supernatant containing violacein was then transferred to a new 96-well plate, and the absorbance was measured at 595 nm using a Multiskan Sky Microplate spectrophotometer. To detect any bactericidal effects, the viability of the cells was measured in the second replica plate by adding 10 μL of 400 μM resazurin in each well and incubating the plate for 30 min in the dark at 27 °C (220 rpm). After centrifugation of the plate to separate the cells from the solution, 100 μL of each well were transferred into a new 96-well plate and the fluorescence was recorded as described above using the Varioskan LUX multimode plate reader.

A further data set deals with HL-60. Nature of the data set: Cytotoxicity, resazurin staining assay. It is filed as cell-based, human. The settings on record: 24 h incubation. In short, it runs like this:
(§3)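 A549 and HEp-2 cells (1 × 10^4/well) attached for 24 h before compound addition; HL-60 seeded directly with compounds; 0.25% DMSO final, 24 h exposure. Adherent cells then washed and given 20 μM resazurin for 2 h; HL-60 received resazurin directly for 4 h; fluorescence read-out, 1% Triton X-100 as positive control.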
Background: Alamar Blue is a resazurin reagent that responds to reducing activity.

A further data set relates to A549. Nature of the data set: Cytotoxicity, resazurin staining assay. It is filed as cell-based, human. The settings on record: 24 h incubation. In short, it runs like this:
as §3

Another data set concerns HEp-2. Nature of the data set: Cytotoxicity, resazurin staining assay. It is filed as cell-based, human. The settings on record: 24 h incubation. In short, it runs like this: as §3
For data set [2], the system named is C. violaceum ATCC 31532 (wild type). Kind of data set: Quorum sensing inhibition assay (violacein) with parallel resazurin viability. It is filed as cell-based, Chromobacterium violaceum. The settings on record: wild-type strain. The protocol:
as §1, §2

A further data set in a line: Solubility in DMSO. It counts as physicochemical.
In data set [3] the test system is S. aureus ATCC 25923. Kind of data set: S. aureus attachment on LDPE tubes, alone or in coculture with differentiated HL-60 cells. It counts as cell-based, Staphylococcus aureus. The settings on record: 25 μM, 24 h. As to the method: The coculture system was as previously described.[40] Briefly, the bacteria were prepared as described above and the concentration was adjusted to 2 × 10^7 CFU mL^–1 in RPMI 1640. The media of the differentiated HL-60 cells was refreshed with RPMI 1640 24 h before the experiments to remove possible traces of antibiotics. On the day of the experiment, the cells were counted and adjusted to a concentration of 2 × 10^5 cells mL^–1 in RPMI 1640. Each suspension (bacterial and differentiated HL-60 cells, 500 μL of each) was added on 1-cm-long sections of a sterilized fine bore LDPE tubing (Smiths Medical ASD, Minneapolis, MN) in 24-well plates (Nunclon Δ surface, Nunc, Roskilde, Denmark). Fingolimod was also added to the wells at a concentration of 25 μM (0.25% DMSO). Coculture controls with no added compound were included, as well as bacterial controls without differentiated HL-60 cells with and without fingolimod. The plates were incubated for 24 h in the same conditions as for cell maintenance. Then, the LDPE tubes were gently washed with TSB to remove adhering planktonic cells and transferred to Eppendorf tubes containing 1 mL of 0.5% (w/v) Tween 20-TSB solution. Next, the tubes were sonicated in a water bath sonicator (Branson Ultrasonics, Danbury, CT) for 5 min at 35 kHz. The tubes were vortexed for 20 s prior to and after the sonication step. […]

In another data set the test system is A. baumannii NCTC 13423. Details: method as in PMID 33233348. Particulars: previously reported; cited from earlier work.
Data set [4] concerns S. aureus ATCC 25923. Details: method as in PMID 33233348. Particulars: previously found; cited from earlier work.

In brackets after ≈: the same amount, converted by molar mass.

The term CC50 denotes the concentration that lowers cell viability or growth by half.

In the case of `CCCCCCCCc1ccc2ccc(CC(N)(CO)CO)nc2c1` [Compound 82, 2-Amino-2-[(7-octylquinolin-2-yl)methyl]propane-1,3-diol], in data set [1], the “QSI activity compared with fingolimod” value is recorded as “significantly better QSI activity”.
For “2-Amino-2-(4-decylbenzyl)propane-1,3-diol [Compound 45]”, the 50% cytotoxic concentration (CC50) in the data set on HL-60 is 3.2 ± 1 µM; with A549, 27.4 ± 15.1 µM; in the data set on HEp-2 it was greater than 40 µM.
For the molecule `CCCCCCCCc1ccc2cc(CC(N)(CO)CO)ccc2c1` [Compound 79, 2-Amino-2-[(6-octylnaphthalen-2-yl)methyl]propane-1,3-diol], the “QSI activity compared with fingolimod” value in data set [2] and in data set [1] was “significantly lower QSI activity than fingolimod” throughout.
Turning to `CCCCCCCCCCc1ccc(CCC(N)(CO)CO)nc1` [Compound 62, 2-Amino-2-[2-(5-decylpyridin-2-yl)ethyl]propane-1,3-diol], the “QSI activity compared with fingolimod” value in data set [2] was “significantly worse than fingolimod”.
In the case of `CCCCCCCCCCc1ccc2nc(CCC(N)(CO)CO)ccc2c1` [Compound 81, 2-Amino-2-[2-(6-decylquinolin-2-yl)ethyl]propane-1,3-diol], the “Solubility in dimethyl sulfoxide (DMSO)” value in the data set “Solubility in DMSO” is given as “not fully soluble”.
With `CCCCCCCCc1ccc(CCC(N)(CO)CO)cc1` [fingolimod, Fingolimod], the “Bacterial attachment on LDPE tubes” value in the data set with S. aureus ATCC 25923 [3] (in combination with HL-60 cells, vs coculture control (p = 0.042)) was “significant reduction”. In addition, the “Numbers of attached viable S. aureus on LDPE tubes” value with S. aureus ATCC 25923 [3] (in the absence of HL-60 cells, vs monoculture control (p = 0.013)) is “significantly reduced”. The “MIC A. baumannii” value in the data set on A. baumannii NCTC 13423 is 25 µM (≈ 7.69 µg/mL). In “Solubility in DMSO”, the “Solubility in dimethyl sulfoxide (DMSO)” value was “not fully soluble”. Also, in the data set on S. aureus ATCC 25923 [4], the “MIC in pre-exposure, S. aureus” value is 15 µM (≈ 4.61 µg/mL).
